Laboratory results taken from paper PMC10037464, “Chemical Knockdown of Phosphorylated p38 Mitogen-Activated Protein Kinase (MAPK) as a Novel Approach for the Treatment of Alzheimer′s Disease” (ACS Central Science, 2023).

Experiments:
[1] = biological target: T1, p38 MAPK, active phosphomimetic mutant (Homo sapiens, UniProt Q16539, D176A); assay: degradation of expressed mutant in HEK293T cells (immunoblot); type: cell-based
T1 construct: gene MAPK14; p38 active form expressed in HEK293T cells

[2] = biological target: T2, phosphorylated p38 MAPK (p-p38) (Homo sapiens, UniProt Q16539); assay: CRBN- and proteasome-dependent degradation in cells (immunoblot DC50); type: cell-based
T2 construct: gene MAPK14; phosphorylated p38 in HEK293T cells
T2 sequence (Q16539 2-360): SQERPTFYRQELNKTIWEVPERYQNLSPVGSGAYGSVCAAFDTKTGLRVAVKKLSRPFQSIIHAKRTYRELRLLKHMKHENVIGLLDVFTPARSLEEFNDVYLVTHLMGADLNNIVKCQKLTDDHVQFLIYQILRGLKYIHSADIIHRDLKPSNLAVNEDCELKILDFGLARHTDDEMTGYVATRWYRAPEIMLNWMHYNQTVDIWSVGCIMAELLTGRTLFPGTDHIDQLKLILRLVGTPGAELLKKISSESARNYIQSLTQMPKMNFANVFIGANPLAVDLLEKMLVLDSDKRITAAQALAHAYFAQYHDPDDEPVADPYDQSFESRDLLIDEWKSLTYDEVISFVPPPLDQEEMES
T2 sequence (Q96SW2 whole entry partner): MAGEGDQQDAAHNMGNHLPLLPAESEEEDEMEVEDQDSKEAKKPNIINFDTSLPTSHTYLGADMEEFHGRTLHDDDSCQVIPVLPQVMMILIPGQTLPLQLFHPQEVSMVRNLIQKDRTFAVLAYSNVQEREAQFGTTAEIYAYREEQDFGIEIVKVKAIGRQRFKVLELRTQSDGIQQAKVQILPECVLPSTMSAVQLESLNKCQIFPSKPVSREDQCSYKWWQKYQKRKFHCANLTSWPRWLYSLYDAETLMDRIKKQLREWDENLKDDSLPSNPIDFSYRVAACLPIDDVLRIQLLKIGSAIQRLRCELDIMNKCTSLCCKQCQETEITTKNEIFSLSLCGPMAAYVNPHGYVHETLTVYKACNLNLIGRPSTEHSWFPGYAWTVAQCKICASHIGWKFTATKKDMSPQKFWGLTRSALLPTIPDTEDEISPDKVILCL

T1 sequence (Q16539 2-360 D176A): as the sequence (Q16539 2-360) above, with D175A counted along it

DC50 [2]: 93 nM
SMILES: Cc1ccc(C(=O)NC2CC2)cc1-c1ccc(C(=O)c2ccc(OCCOCCOC(=O)Nc3cccc4c3C(=O)N(C3CCC(=O)NC3=O)C4=O)cc2)cc1 (centres unmarked) [compound 2, PRZ-18002]
degradation of expressed mutant in HEK293T cells (immunoblot) [1]: significant reduction of active p38 mutant (D176A) in preference to wild-type p38
